From patent US20030139373A1, “Method for cancer therapy” (priority 2001, published 2003) come the findings set out here.

SMILES strings stand for the structures.

For one series, the system named is H1299 cells. Put plainly: Tetrazolium dye (MTT) proliferation assay, H1299. Type of series: cell-based. The settings on record: Homo sapiens, NCI-H1299; MTT assay using H1299 cells. The protocol:
H1299 cells were obtained from the National Cancer Institute. A549 cells were purchased from ATCC. The cells were grown in a subconfluent condition to maintain a logarithmic growth phase. The cells were dislodged for passage using trypsin-EDTA (0.05% and 0.53 mM, respectively).
Cellular proliferation was evaluated by the tetrazolium dye assay. Cells from exponentially growing cultures were plated at the appropriate seeding density in the optimal medium to give logarithmic growth over the course of the assay. Plates were incubated overnight at 37° C. in a humidified CO2 atmosphere to allow for recovery from trypsinization before beginning the assay. […] The plates were returned to 37° C. and assayed for proliferation by MTT (3-(4,5-dimethyl-thiazole-2-yl)-2,5-diphenyl-2H-tetrazolium bromide at time points that would allow for at least three population doublings in the untreated control cultures. MTT was added to each well to yield a final concentration of 1 mg/ml and the plates were returned to 37° C. for 2.5 hours. Following incubation, the MTT-containing medium was removed by aspiration and the resulting formazan metabolite was solubilized in 50 μl ethanol. Absorbances were read at a wavelength of 570 nm with a 650 nm reference. Percent inhibition was calculated using the formula: [formula]
Background: Tetrazolium dyes change colour on reduction, which living cells bring about.

A further series has as its system A549 NSCLC Xenograft. The series is described as follows: A549 NSCLC xenograft model, efficacy (tumor growth inhibition). Type of series: in vivo, mice. The settings on record: single agent. An excerpt: For implantation in mice, A549 cells were dislodged with trypsin-EDTA, washed with 1×D-PBS, and resuspended in serum-free media. […] Tumors were allowed to establish until they were palpable and of an appropriate tumor volume (based on previous tumorigenicity studies) before initiation of treatment. Animals were randomly assigned to groups according to initial tumor volume, and the day of tumor cell inoculation was considered to be study day 0. […] The solution was then evaporated and lyophilized. […] Efficacy data was graphically represented as the mean tumor volume ±standard error of the mean (SEM). Tumor volumes of treated groups were presented as percentages of tumor volumes of the control groups (%T/C), using the formula: 100×((T-T0)/(C-C0)), where 'T' represented mean tumor volume of a treated group on a specific day during the experiment, 'T0' represented mean tumor volume of the same treated group on the first day of treatment; 'C' represented mean tumor volume of a control group on a specific day during the experiment, and C0' represented mean tumor volume of the same […] 'D' represents the large diameter of the tumor, and 'd' represents the small diameter. In some cases, tumor regression and/or percent change in tumor volume was calculated using the formula: Statistical analysis was determined by the rank sum test (SigmaStat, v.2.0, Jandel Scientific, San Francisco, Calif.).

Series [1] is described as follows: A549 NSCLC xenograft model, toxicity (body weight, deaths). The settings on record: single agent. An excerpt:
Female BALB/c nu/nu mice were obtained from Charles River Laboratories (Wilmington, Mass.). The mice were housed in an AALAC approved facility and received standard care in accordance with institutional policy (fully compliant with both NIH and Roche Animal Care and Use Committee guidelines).
Compound II was microprecipitated with an ionic polymer, Eudragit L-100-55, using a solvent extraction method. Eudragit L100-55 (described in USP/NF as “Methacrylic Acid Copolymer”) is an anionic copolymer based on methacrylic acid and ethyl acrylate. The ratio of drug to polymer in the final formulation was 50% w/w Compound II and 50% w/w Eudragit L100-55. For oral administration, the formulated Compound II or pure Eudragit L100-55 (administered to vehicle control groups) was suspended in 0.2% CMC (carboxy-methyl cellulose) solution (Aqualon Hercules, Inc., Parlin, N.J.). The CMC solution was added immediately prior to dosing to animals. Gemzar® (Lilly, Indianapolis, Ind.) was applied to a 40 micron high performance Whatman C-18 column. The column was eluted at 60 ml/min for 50 minutes with water, followed by elution with 40% CH3CN/water until UV clear. The solution was then evaporated and lyophilized.
Weight loss was graphically represented as percent change in mean group body weight, using the formula: […]
where ‘W’ represents mean body weight of the treated group at a particular day, and ‘W0’ represents mean body weight of the same treated group at initiation of treatment.

Take `Nc1ccn([C@@H]2O[C@H](CO)[C@@H](O)C2(F)F)c(=O)n1` [Gemcitabine, gemcitabine]: in the series on H1299 cells, the IC50 was determined as 3.8 nM. Further, the IC90 with H1299 cells stood at 6 nM. In addition, the “Tumor Volume (Mean ± SEM) (Day 30)” value turned out to be 97 ± 15 mm3 with A549 NSCLC Xenograft (G 30 mg/kg IP), 111 ± 17 mm3 with A549 NSCLC Xenograft (G 60 mg/kg IP) and 98 ± 20 mm3 in the series on A549 NSCLC Xenograft (G 120 mg/kg IP). For the same compound, the “% T/C (Day 47)” value in the series with A549 NSCLC Xenograft (G 30 mg/kg IP) was determined as 72%; with A549 NSCLC Xenograft (G 60 mg/kg IP), 49%; in the series with A549 NSCLC Xenograft (G 120 mg/kg IP), 61%. In addition, the “Tumor Volume (Mean ± SEM) (Day 47)” value is given as 210 ± 44 mm3 in the series with A549 NSCLC Xenograft (G 30 mg/kg IP), 188 ± 27 mm3 with A549 NSCLC Xenograft (G 60 mg/kg IP) and 193 ± 36 mm3 in the series on A549 NSCLC Xenograft (G 120 mg/kg IP). The “Drug Related Deaths” value in series [1] (G 30 mg/kg IP), in series [1] (G 60 mg/kg IP) and in series [1] (G 120 mg/kg IP) was 0% throughout.

As for `Cn1cc(C2=C(c3cn(C)c4cc([N+](=O)[O-])ccc34)C(=O)NC2=O)c2ccccc21` [Compound II], the “Tumor Volume (Mean ± SEM) (Day 30)” value came to 104 ± 18 mm3 in the series on A549 NSCLC Xenograft (CII 50 mg/kg PO), 148 ± 28 mm3 in the series with A549 NSCLC Xenograft (CII 100 mg/kg PO) and 99 ± 17 mm3 with A549 NSCLC Xenograft (CII 200 mg/kg PO). In addition, the “% T/C (Day 47)” value in the series with A549 NSCLC Xenograft (CII 50 mg/kg PO) turned out to be 50%; in the series on A549 NSCLC Xenograft (CII 100 mg/kg PO) it was 29%; in the series with A549 NSCLC Xenograft (CII 200 mg/kg PO) it was 18%. Further, the “Tumor Volume (Mean ± SEM) (Day 47)” value turned out to be 217 ± 32 mm3 in the series with A549 NSCLC Xenograft (CII 50 mg/kg PO), 213 ± 35 mm3 in the series on A549 NSCLC Xenograft (CII 100 mg/kg PO) and 141 ± 21 mm3 in the series with A549 NSCLC Xenograft (CII 200 mg/kg PO). Besides, the “Drug Related Deaths” value in series [1] (CII 50 mg/kg PO), in series [1] (CII 100 mg/kg PO) and in series [1] (CII 200 mg/kg PO) was 0% throughout.

A word on the IC50: it is the concentration needed to halve the response being measured. Low values mean greater potency, high ones weaker potency. One may read the IC90 as the concentration needed for an effect of 90%. A low value points to an effect from little substance.
